Earlier results as cited in patent US20260137642A1 (CANCER PREVENTION PHARMACEUTICALS, INC., priority 2021, published 2026).

Assays:
[1] = phase II study; cited from earlier work
[2] = in vivo; cited from earlier work
[3] = cited from earlier work
[4] = cited from earlier work; remark: listed apart in the source

Question: Which Tolerability [1] does the source give for `CCNCCCNCCCNCCCNCC` [DENSPM] here?
Answer: Its Tolerability is “well-tolerated”.

Question: Which results are given for `Cc1ccc(-c2cc(C(F)(F)F)nn2-c2ccc(S(N)(=O)=O)cc2)cc1` [Celecoxib, 4-[5-(4-Methylphenyl)-3-(trifluoromethyl)pyrazol-1-yl]benzenesulfonamide]?
Answer: Increase in rates of heart and blood vessel disease [2]: 30%; Risk of gastrointestinal side effects [2]: greater than 80%

Question: Which “Fraction of the drug absorbed” value ([3]; after oral administration) does the source give for `CC1=C(CC(=O)O)c2cc(F)ccc2/C1=C\c1ccc([S+](C)[O-])cc1` (centres unmarked) [Sulindac, (Z)-5-fluoro-2-methyl-1-((4-(methylsulfinyl)phenyl)methylene)-1H-indene-3-acetic acid] here?
Answer: Its value is “about 90%”.

Question: What about the “Time to peak plasma levels” value ([3]; fasting patients) of the same compound?
Answer: The value was “about 2 hours”.

Question: And the “Patients with mild gastrointestinal effects” value ([4]; abdominal pain and nausea most frequent)?
Answer: The value was ~20%.

Question: What about the “Patients with skin rash and pruritus” value ([4]; human, in vivo) of the same compound?
Answer: Its value is 5%.

Question: With `CSc1ccc(/C=C2/C(C)=C(CC(=O)O)c3cc(F)ccc32)cc1` [sulfide metabolite] as the compound, how does the Mean half-life ([3]; in vivo) read?
Answer: The Mean half-life was 16.4 h.
